Source: patent US11214594B2, “Antimicrobial peptide having synergistic antibacterial effect with antibiotics on multidrug resistant bacteria, and use thereof” (priority 2016, dated 2022)
≈ marks a conversion by molar mass, not a printed value. Where a SMILES comes first, the peptide text is derived from it. [ ]: non-standard residue; d: D form.

Assays:
E. coli [1] = experiment: microbe, parasite or virus in culture; format: cell-based, Escherichia coli; conditions: 16 h
Summary of the method: (§1)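 MIC read-out = lowest peptide level with no bacterial proliferation. Strains diluted in MH medium to 2×10^6 CFU; peptide twofold serial dilutions in MH added 1:1 in microtiter wells.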

MDREC 1229 [2] = experiment: microbe, parasite or virus in culture; format: cell-based, Escherichia coli
Summary of the method: as §1

MDREC 1238 = format: cell-based, Escherichia coli
Summary of the method: as §1

P. aeruginosa = experiment: microbe, parasite or virus in culture; format: cell-based, Pseudomonas aeruginosa
Summary of the method: as §1

MDRPA 2002 = format: cell-based, Pseudomonas aeruginosa
Summary of the method: as §1

MDRPA 2003 = format: cell-based, Pseudomonas aeruginosa
Summary of the method: as §1

MDRST 8007 = experiment: Minimal inhibitory concentration (MIC), single agent; format: cell-based, Salmonella typhimurium; conditions: agent alone
Summary of the method: as §1

B. subtilis = experiment: microbe, parasite or virus in culture; format: cell-based, Bacillus subtilis
Summary of the method: as §1

S. epidermidis = experiment: microbe, parasite or virus in culture; format: cell-based, Staphylococcus epidermidis
Summary of the method: as §1

S. aureus = experiment: microbe, parasite or virus in culture; format: cell-based, Staphylococcus aureus
Summary of the method: as §1

MRSA 3114 = format: cell-based, Staphylococcus aureus; conditions: 3114
Summary of the method: as §1

MRSA 3126 = format: cell-based, Staphylococcus aureus; conditions: 3126
Summary of the method: as §1

E. coli [3] = experiment: MIC of antibiotic during combined treatment with antimicrobial peptide; format: cell-based, Escherichia coli; conditions: for Antibiotic MIC, Erythromycin / Antibiotic MIC, Linezolid / Antibiotic MIC, Vancomycin: E. coli
Summary of the method: (§2)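 First, antibiotic solution is diluted with MH medium; next, the dilution is dispensed into wells containing peptide; finally, the orientation is swapped and MIC of each mixture determined.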

MDREC 1229 [4] = experiment: as above; format: cell-based, Escherichia coli
Summary of the method: (§3)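 Broth microdilution in MH medium; strains were diluted to 2×10^6 CFU per ml before plating. Peptide was serially diluted stepwise at 2:1 starting from its MIC, and MH-diluted antibiotic was then added to determine MIC. The reversed arrangement was also tested.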

A. baumannii = experiment: as above; format: cell-based, Acinetobacter baumannii; conditions: for Antibiotic MIC, Erythromycin / Antibiotic MIC, Linezolid / Antibiotic MIC, Vancomycin: A. baumannii
Summary of the method: as §2

MDRAB 12035 = experiment: as above; format: cell-based, Acinetobacter baumannii
Summary of the method: as §3

[5] = peptide treatment concentration 1 μg/ml
[6] = peptide treatment concentration 2 μg/ml
[7] = peptide treatment concentration 4 μg/ml
[8] = peptide treatment concentration 6 μg/ml
[9] = peptide treatment concentration 8 μg/ml
[10] = peptide treatment concentration 16 μg/ml
[11] = peptide treatment concentration 32 μg/ml
[12] = peptide treatment concentration 64 μg/ml
[13] = combined with peptide at 1 μg/ml
[14] = combined with peptide at 2 μg/ml
[15] = combined with peptide at 4 μg/ml
[16] = combined with peptide at 6 μg/ml
[17] = combined with peptide at 8 μg/ml
[18] = combined with peptide at 16 μg/ml
[19] = combined with peptide at 32 μg/ml
[20] = combined with peptide at 64 μg/ml

CC[C@H](C)[C@H](NC(=O)[C@H](CCCCN)NC(=O)[C@H](Cc1c[nH]c2ccccc12)NC(=O)[C@@H](N)CCCNC(=N)N)C(=O)N[C@@H](Cc1ccccc1)C(=O)N[C@@H](CCCCN)C(=O)N[C@@H](CCCCN)C(=O)N[C@H](C(=O)N[C@H](CCCCN)C(=O)N[C@@H](CCCCN)C(=O)N[C@@H](CC(C)C)C(=O)N[C@@H](CC(C)C)C(=O)N[C@@H](Cc1c[nH]cn1)C(=O)N[C@@H](CO)C(=O)N[C@@H](C)C(=O)N[C@@H](CCCCN)C(=O)N[C@@H](CCCCN)C(=O)N[C@@H](Cc1c[nH]c2ccccc12)C(N)=O)[C@@H](C)CC [PapMA-16, RWK IFK KIk KLL HSA KKW-NH2] (H-RWKIFKKI[dK]KLLHSAKKW-NH2; N-terminus assumed)
Minimal inhibitory concentration MIC (E. coli [1]): 64 µg/mL (≈ 27.4 µM)
Minimal inhibitory concentration MIC (MDREC 1229 [2]): 64 µg/mL (≈ 27.4 µM)
Peptide MIC, peptide alone (MDREC 1229 [2]): 64 µg/mL
Minimal inhibitory concentration MIC (MDREC 1238): 64 µg/mL (≈ 27.4 µM)
Minimal inhibitory concentration MIC (P. aeruginosa): 64 µg/mL (≈ 27.4 µM)
Minimal inhibitory concentration MIC (MDRPA 2002): 64 µg/mL (≈ 27.4 µM)
Minimal inhibitory concentration MIC (MDRPA 2003): 64 µg/mL (≈ 27.4 µM)
Minimal inhibitory concentration MIC (MDRST 8007): 64 µg/mL (≈ 27.4 µM)
Minimal inhibitory concentration MIC (B. subtilis): >128 µg/mL
Minimal inhibitory concentration MIC (S. epidermidis): >128 µg/mL
Minimal inhibitory concentration MIC (S. aureus): >128 µg/mL
Minimal inhibitory concentration MIC (MRSA 3114): >128 µg/mL
Minimal inhibitory concentration MIC (MRSA 3126): >128 µg/mL
Synergistic effect of antibacterial activity with existing antibiotics compared with PapMA-1 (E. coli [3]; E. coli and MDREC1229): higher level than the PapMA-1 peptide
Antibiotic MIC, Erythromycin (E. coli [3]; erythromycin combined with peptide at 1 μg/ml): 128 µg/mL
Antibiotic MIC, Erythromycin (E. coli [3]; erythromycin combined with peptide at 2 μg/ml): 32 µg/mL
Antibiotic MIC, Erythromycin (E. coli [3]; erythromycin combined with peptide at 4 μg/ml): 16 µg/mL
Antibiotic MIC, Erythromycin (E. coli [3]; erythromycin combined with peptide at 6 μg/ml): 2 µg/mL
Antibiotic MIC, Erythromycin (E. coli [3]; erythromycin combined with peptide at 8 μg/ml): 2 µg/mL
Antibiotic MIC, Erythromycin (E. coli [3]; erythromycin combined with peptide at 16 μg/ml): 0.25 µg/mL
Antibiotic MIC, Erythromycin (E. coli [3]; erythromycin combined with peptide at 32 μg/ml): 0.125 µg/mL
Antibiotic MIC, Erythromycin (E. coli [3]; erythromycin combined with peptide at 64 μg/ml): 0 µg/mL
Antibiotic MIC, Linezolid (E. coli [3]; linezolid combined with peptide at 1 μg/ml): >128 µg/mL
Antibiotic MIC, Linezolid (E. coli [3]; linezolid combined with peptide at 2 μg/ml): >128 µg/mL
Antibiotic MIC, Linezolid (E. coli [3]; linezolid combined with peptide at 4 μg/ml): 32 µg/mL
Antibiotic MIC, Linezolid (E. coli [3]; linezolid combined with peptide at 6 μg/ml): 16 µg/mL
Antibiotic MIC, Linezolid (E. coli [3]; linezolid combined with peptide at 8 μg/ml): 16 µg/mL
Antibiotic MIC, Linezolid (E. coli [3]; linezolid combined with peptide at 16 μg/ml): 8 µg/mL
Antibiotic MIC, Linezolid (E. coli [3]; linezolid combined with peptide at 32 μg/ml): 4 µg/mL
Antibiotic MIC, Linezolid (E. coli [3]; linezolid combined with peptide at 64 μg/ml): 0 µg/mL
Antibiotic MIC, Vancomycin (E. coli [3]; vancomycin combined with peptide at 1 μg/ml): >128 µg/mL
Antibiotic MIC, Vancomycin (E. coli [3]; vancomycin combined with peptide at 2 μg/ml): >128 µg/mL
Antibiotic MIC, Vancomycin (E. coli [3]; vancomycin combined with peptide at 4 μg/ml): >128 µg/mL
Antibiotic MIC, Vancomycin (E. coli [3]; vancomycin combined with peptide at 6 μg/ml): 32 µg/mL
Antibiotic MIC, Vancomycin (E. coli [3]; vancomycin combined with peptide at 8 μg/ml): 16 µg/mL
Antibiotic MIC, Vancomycin (E. coli [3]; vancomycin combined with peptide at 16 μg/ml): 8 µg/mL
Antibiotic MIC, Vancomycin (E. coli [3]; vancomycin combined with peptide at 32 μg/ml): 4 µg/mL
Antibiotic MIC, Vancomycin (E. coli [3]; vancomycin combined with peptide at 64 μg/ml): 0 µg/mL
Antibiotic MIC, Erythromycin (MDREC 1229 [4]; [5]): >128 µg/mL
Antibiotic MIC, Linezolid (MDREC 1229 [4]; [5]): >128 µg/mL
Antibiotic MIC, Vancomycin (MDREC 1229 [4]; [5]): >128 µg/mL
Antibiotic MIC, Erythromycin (MDREC 1229 [4]; [6]): 64 µg/mL
Antibiotic MIC, Linezolid (MDREC 1229 [4]; [6]): >128 µg/mL
Antibiotic MIC, Vancomycin (MDREC 1229 [4]; [6]): >128 µg/mL
Antibiotic MIC, Erythromycin (MDREC 1229 [4]; [7]): 32 µg/mL
Antibiotic MIC, Linezolid (MDREC 1229 [4]; [7]): 64 µg/mL
Antibiotic MIC, Vancomycin (MDREC 1229 [4]; [7]): 128 µg/mL
Antibiotic MIC, Erythromycin (MDREC 1229 [4]; [8]): 4 µg/mL
Antibiotic MIC, Linezolid (MDREC 1229 [4]; [8]): 32 µg/mL
Antibiotic MIC, Vancomycin (MDREC 1229 [4]; [8]): 32 µg/mL
Antibiotic MIC, Erythromycin (MDREC 1229 [4]; [9]): 2 µg/mL
Antibiotic MIC, Linezolid (MDREC 1229 [4]; [9]): 16 µg/mL
Antibiotic MIC, Vancomycin (MDREC 1229 [4]; [9]): 16 µg/mL
Antibiotic MIC, Erythromycin (MDREC 1229 [4]; [10]): 1 µg/mL
Antibiotic MIC, Linezolid (MDREC 1229 [4]; [10]): 8 µg/mL
Antibiotic MIC, Vancomycin (MDREC 1229 [4]; [10]): 8 µg/mL
Antibiotic MIC, Erythromycin (MDREC 1229 [4]; [11]): 0.5 µg/mL
Antibiotic MIC, Linezolid (MDREC 1229 [4]; [11]): 4 µg/mL
Antibiotic MIC, Vancomycin (MDREC 1229 [4]; [11]): 4 µg/mL
Antibiotic MIC, Erythromycin (MDREC 1229 [4]; [12]): 0 µg/mL
Antibiotic MIC, Linezolid (MDREC 1229 [4]; [12]): 0 µg/mL
Antibiotic MIC, Vancomycin (MDREC 1229 [4]; [12]): 0 µg/mL
Synergistic effect of antibacterial activity with existing antibiotics compared with PapMA-1 (A. baumannii; A. baumannii and MDRAB 12035): level similar to that of PapMA-1 peptide
Antibiotic MIC, Erythromycin (A. baumannii; [13]): 32 µg/mL
Antibiotic MIC, Linezolid (A. baumannii; [13]): >128 µg/mL
Antibiotic MIC, Vancomycin (A. baumannii; [13]): >128 µg/mL
Antibiotic MIC, Erythromycin (A. baumannii; [14]): 16 µg/mL
Antibiotic MIC, Linezolid (A. baumannii; [14]): >128 µg/mL
Antibiotic MIC, Vancomycin (A. baumannii; [14]): 128 µg/mL
Antibiotic MIC, Erythromycin (A. baumannii; [15]): 8 µg/mL
Antibiotic MIC, Linezolid (A. baumannii; [15]): 128 µg/mL
Antibiotic MIC, Vancomycin (A. baumannii; [15]): 64 µg/mL
Antibiotic MIC, Erythromycin (A. baumannii; [16]): 1 µg/mL
Antibiotic MIC, Linezolid (A. baumannii; [16]): 32 µg/mL
Antibiotic MIC, Vancomycin (A. baumannii; [16]): 32 µg/mL
Antibiotic MIC, Erythromycin (A. baumannii; [17]): 0.5 µg/mL
Antibiotic MIC, Linezolid (A. baumannii; [17]): 16 µg/mL
Antibiotic MIC, Vancomycin (A. baumannii; [17]): 16 µg/mL
Antibiotic MIC, Erythromycin (A. baumannii; [18]): 0.25 µg/mL
Antibiotic MIC, Linezolid (A. baumannii; [18]): 8 µg/mL
Antibiotic MIC, Vancomycin (A. baumannii; [18]): 8 µg/mL
Antibiotic MIC, Erythromycin (A. baumannii; [19]): 0 µg/mL
Antibiotic MIC, Linezolid (A. baumannii; [19]): 0 µg/mL
Antibiotic MIC, Vancomycin (A. baumannii; [19]): 0 µg/mL
Antibiotic MIC, Erythromycin (A. baumannii; [20]): 0 µg/mL
Antibiotic MIC, Linezolid (A. baumannii; [20]): 0 µg/mL
Antibiotic MIC, Vancomycin (A. baumannii; [20]): 0 µg/mL
Erythromycin MIC during combined treatment with peptide (MDRAB 12035; [5]): 32 µg/mL
Linezolid MIC during combined treatment with peptide (MDRAB 12035; [5]): >128 µg/mL
Vancomycin MIC during combined treatment with peptide (MDRAB 12035; [5]): >128 µg/mL
Erythromycin MIC during combined treatment with peptide (MDRAB 12035; [6]): 32 µg/mL
Linezolid MIC during combined treatment with peptide (MDRAB 12035; [6]): >128 µg/mL
Vancomycin MIC during combined treatment with peptide (MDRAB 12035; [6]): >128 µg/mL
Erythromycin MIC during combined treatment with peptide (MDRAB 12035; [7]): 16 µg/mL
Linezolid MIC during combined treatment with peptide (MDRAB 12035; [7]): 128 µg/mL
Vancomycin MIC during combined treatment with peptide (MDRAB 12035; [7]): 64 µg/mL
Erythromycin MIC during combined treatment with peptide (MDRAB 12035; [8]): 4 µg/mL
Linezolid MIC during combined treatment with peptide (MDRAB 12035; [8]): 32 µg/mL
Vancomycin MIC during combined treatment with peptide (MDRAB 12035; [8]): 32 µg/mL
Erythromycin MIC during combined treatment with peptide (MDRAB 12035; [9]): 1 µg/mL
Linezolid MIC during combined treatment with peptide (MDRAB 12035; [9]): 16 µg/mL
Vancomycin MIC during combined treatment with peptide (MDRAB 12035; [9]): 16 µg/mL
Erythromycin MIC during combined treatment with peptide (MDRAB 12035; [10]): 0.25 µg/mL
Linezolid MIC during combined treatment with peptide (MDRAB 12035; [10]): 8 µg/mL
Vancomycin MIC during combined treatment with peptide (MDRAB 12035; [10]): 8 µg/mL
Erythromycin MIC during combined treatment with peptide (MDRAB 12035; [11]): 0 µg/mL
Linezolid MIC during combined treatment with peptide (MDRAB 12035; [11]): 0 µg/mL
Vancomycin MIC during combined treatment with peptide (MDRAB 12035; [11]): 0 µg/mL
Erythromycin MIC during combined treatment with peptide (MDRAB 12035; [12]): 0 µg/mL
Linezolid MIC during combined treatment with peptide (MDRAB 12035; [12]): 0 µg/mL
Vancomycin MIC during combined treatment with peptide (MDRAB 12035; [12]): 0 µg/mL
